According to patent US10765114B2, “4-amino-6-(pyridyl and 2-substitutedphenyl)-picolinates and 6-amino-2-(pyridyl and 2-substitutedphenyl)-pyrimidine-4-carboxylates and their use as herbicides” (Dow AgroSciences LLC, priority 2013, dated 2020):
Read-outs that look alike come from different tables or passages of the source.

How the values were obtained:
[1] = system: Key Grass and Sedge Weeds as well as Grass Crops; experiment: Post-Emergent Test II (Table 6); format: in vivo; conditions: post-emergence, 336 h, 14 days after application; for pest or weed control at 70 g/ha: 70 g ai/ha; for pest or weed control at 140 g/ha: 140 g ai/ha
In short: (§1)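 Growth stage at treatment: first or second true leaf. Application: compound in acetone/DMSO diluted into an adjuvant-containing aqueous mix, sprayed at 187 L/ha at several rates. Assessment: visual 0-100% injury at 14 days against untreated plants.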

[2] = system: Key Broadleaf Weed and Crop Species; experiment: Post-Emergent Test II (Table 5); format: in vivo; conditions: post-emergence, 336 h; for pest or weed control at 70 g/ha: application rate 70 (kg ai/ha; footnote: g ai/ha); for pest or weed control at 140 g/ha: application rate 140 (kg ai/ha; footnote: g ai/ha)
In short: as §1

[3] = CYPSS, read-out: Visual Growth Reduction (%) 14 Days After Application CYPSS
[4] = DIGSA: crabgrass (Digitaria sanguinalis), read-out: Visual Growth Reduction (%) 14 Days After Application DIGSA
[5] = ECHSS, read-out: Visual Growth Reduction (%) 14 Days After Application ECHSS
[6] = ORYSS (crop), read-out: Visual Growth Reduction (%) 14 Days After Application ORYSS
[7] = SETFA: giant foxtail (Setaria faberi), read-out: Visual Growth Reduction (%) 14 Days After Application SETFA
[8] = SORVU: grain sorghum (Sorghum vulgare), read-out: Visual Growth Reduction (%) 14 Days After Application SORVU
[9] = TRZSS (crop), read-out: Visual Growth Reduction (%) 14 Days After Application TRZSS
[10] = ZEAMX: maize, corn (Zea mays), read-out: Visual Growth Reduction (%) 14 Days After Application ZEAMX
[11] = Abutilon theophrasti, ABUTH: velvetleaf (Abutilon theophrasti), read-out: Visual Growth Reduction (%) 14 Days After Application ABUTH
[12] = Amaranthus retroflexus, AMARE: redroot pigweed (Amaranthus retroflexus), read-out: Visual Growth Reduction (%) 14 Days After Application AMARE
[13] = Brassica napus, BRSSS: oilseed rape, canola (Brassica napus), read-out: Visual Growth Reduction (%) 14 Days After Application BRSSS
[14] = Chenopodium album, CHEAL: lambsquarters (Chenopodium album), read-out: Visual Growth Reduction (%) 14 Days After Application CHEAL
[15] = Euphorbia heterophylla, EPHHL: wild poinsettia (Euphorbia heterophylla), read-out: Visual Growth Reduction (%) 14 Days After Application EPHHL
[16] = Helianthus annuus, HELAN: sunflower (Helianthus annuus), read-out: Visual Growth Reduction (%) 14 Days After Application HELAN
[17] = Viola tricolor, VIOTR: wild pansy (Viola tricolor), read-out: Visual Growth Reduction (%) 14 Days After Application VIOTR

Nc1c(F)c(-c2ccc(C3CC3)nc2)nc(C(=O)O)c1Cl [Compound 36, 4-amino-5-chloro-6′-cyclopropyl-3-fluoro-[2,3′-bipyridine]-6-carboxylic acid]
pest or weed control at 70 g/ha [1, 3]: 95 to 100% | pest or weed control at 140 g/ha [1, 3]: 95 to 100% | pest or weed control at 70 g/ha [1, 4]: 60 to 74% | pest or weed control at 140 g/ha [1, 4]: 75 to 84% | pest or weed control at 70 g/ha [1, 5]: 85 to 94% | pest or weed control at 140 g/ha [1, 5]: 85 to 94% | pest or weed control at 70 g/ha [1, 6]: 0 to 29% | pest or weed control at 140 g/ha [1, 6]: 0 to 29% | pest or weed control at 70 g/ha [1, 7]: 95 to 100% | pest or weed control at 140 g/ha [1, 7]: 95 to 100% | pest or weed control at 70 g/ha [1, 8]: 60 to 74% | pest or weed control at 140 g/ha [1, 8]: 60 to 74% | pest or weed control at 70 g/ha [1, 9]: 30 to 44% | pest or weed control at 140 g/ha [1, 9]: 45 to 59% | pest or weed control at 70 g/ha [1, 10]: 95 to 100% | pest or weed control at 140 g/ha [1, 10]: 95 to 100% | melting point: 260 to 265 °C (dec.) | pest or weed control at 70 g/ha [2, 11]: 85 to 94% | pest or weed control at 140 g/ha [2, 11]: 95 to 100% | pest or weed control at 70 g/ha [2, 12]: 95 to 100% | pest or weed control at 140 g/ha [2, 12]: 95 to 100% | pest or weed control at 70 g/ha [2, 13]: 85 to 94% | pest or weed control at 140 g/ha [2, 13]: 95 to 100% | pest or weed control at 70 g/ha [2, 14]: 95 to 100% | pest or weed control at 140 g/ha [2, 14]: 95 to 100% | pest or weed control at 70 g/ha [2, 15]: 95 to 100% | pest or weed control at 140 g/ha [2, 15]: 95 to 100% | pest or weed control at 70 g/ha [2, 16]: 95 to 100% | pest or weed control at 140 g/ha [2, 16]: 95 to 100% | pest or weed control at 70 g/ha [2, 17]: 0 to 29% | pest or weed control at 140 g/ha [2, 17]: 0 to 29%

COC(=O)c1nc(-c2ccc(C(F)(F)F)nc2)c(F)c(N)c1Cl [Compound 59, methyl 4-amino-5-chloro-3-fluoro-6′-(trifluoromethyl)-[2,3′-bipyridine]-6-carboxylate]
pest or weed control at 70 g/ha [1, 3]: 95 to 100% | pest or weed control at 140 g/ha [1, 3]: 95 to 100% | pest or weed control at 70 g/ha [1, 4]: 75 to 84% | pest or weed control at 140 g/ha [1, 4]: 85 to 94% | pest or weed control at 70 g/ha [1, 5]: 85 to 94% | pest or weed control at 140 g/ha [1, 5]: 85 to 94% | pest or weed control at 70 g/ha [1, 6]: 0 to 29% | pest or weed control at 140 g/ha [1, 6]: 0 to 29% | pest or weed control at 70 g/ha [1, 7]: 60 to 74% | pest or weed control at 140 g/ha [1, 7]: 75 to 84% | pest or weed control at 70 g/ha [1, 8]: 75 to 84% | pest or weed control at 140 g/ha [1, 8]: 85 to 94% | pest or weed control at 70 g/ha [1, 9]: 45 to 59% | pest or weed control at 140 g/ha [1, 9]: 45 to 59% | pest or weed control at 70 g/ha [1, 10]: 75 to 84% | pest or weed control at 140 g/ha [1, 10]: 75 to 84% | melting point: 137 °C | pest or weed control at 70 g/ha [2, 11]: 85 to 94% | pest or weed control at 140 g/ha [2, 11]: 95 to 100% | pest or weed control at 70 g/ha [2, 12]: 85 to 94% | pest or weed control at 140 g/ha [2, 12]: 95 to 100% | pest or weed control at 70 g/ha [2, 13]: 60 to 74% | pest or weed control at 140 g/ha [2, 13]: 60 to 74% | pest or weed control at 70 g/ha [2, 14]: 95 to 100% | pest or weed control at 140 g/ha [2, 14]: 95 to 100% | pest or weed control at 70 g/ha [2, 15]: 95 to 100% | pest or weed control at 140 g/ha [2, 15]: 95 to 100% | pest or weed control at 70 g/ha [2, 16]: 95 to 100% | pest or weed control at 140 g/ha [2, 16]: 95 to 100% | pest or weed control at 70 g/ha [2, 17]: 60 to 74% | pest or weed control at 140 g/ha [2, 17]: 75 to 84%

Cc1ccc(-c2nc(C(=O)O)c(Cl)c(N)c2F)cn1 [Compound 85]
pest or weed control at 70 g/ha [1, 3]: 0 to 29% | pest or weed control at 140 g/ha [1, 3]: 0 to 29% | pest or weed control at 70 g/ha [1, 4]: 0 to 29% | pest or weed control at 140 g/ha [1, 4]: 0 to 29% | pest or weed control at 70 g/ha [1, 5]: 45 to 59% | pest or weed control at 70 g/ha [1, 6]: 0 to 29% | pest or weed control at 140 g/ha [1, 6]: 0 to 29% | pest or weed control at 70 g/ha [1, 7]: 0 to 29% | pest or weed control at 140 g/ha [1, 7]: 0 to 29% | pest or weed control at 70 g/ha [1, 8]: 0 to 29% | pest or weed control at 140 g/ha [1, 8]: 0 to 29% | pest or weed control at 70 g/ha [1, 9]: 0 to 29% | pest or weed control at 140 g/ha [1, 9]: 0 to 29% | pest or weed control at 70 g/ha [1, 10]: 0 to 29% | pest or weed control at 140 g/ha [1, 10]: 0 to 29% | melting point: 186 to 187 °C | pest or weed control at 70 g/ha [2, 11]: 0 to 29% | pest or weed control at 140 g/ha [2, 11]: 0 to 29% | pest or weed control at 70 g/ha [2, 12]: 95 to 100% | pest or weed control at 140 g/ha [2, 12]: 95 to 100% | pest or weed control at 70 g/ha [2, 13]: 60 to 74% | pest or weed control at 140 g/ha [2, 13]: 75 to 84% | pest or weed control at 70 g/ha [2, 14]: 0 to 29% | pest or weed control at 140 g/ha [2, 14]: 45 to 59% | pest or weed control at 70 g/ha [2, 15]: 0 to 29% | pest or weed control at 140 g/ha [2, 15]: 0 to 29% | pest or weed control at 70 g/ha [2, 16]: 30 to 44% | pest or weed control at 140 g/ha [2, 16]: 45 to 59% | pest or weed control at 70 g/ha [2, 17]: 0 to 29% | pest or weed control at 140 g/ha [2, 17]: 0 to 29%
